Data published in patent US11672799B2, “1,4-disubstituted pyridazine quinolne analogs there of and methods for treating SMN-deficiency-related conditions” (Novartis AG, priority 2013, dated 2023).

How the values were obtained:
[1] = test system: SMN2 Full reporter; assay: SMN2 Full reporter gene assay (luciferase) in NSC34 stable line; format: cell-based; details: NSC-34, Biological Example 2, 24 hours, BrightGlo, read-out: SMN Activity (EC50)
Source text: SMN2 Full Reporter Construct:
pSMN2 Splicing Luciferase reporter was constructed according to Zhang et al., (An in vivo reporter system for measuring increased inclusion of exon 7 in SMN2 mRNA: potential therapy of SMA. Gene Ther. 2001 October; 8(20):1532-8) via overlapping PCR. The final PCR fragment containing Exon6-Intron6-Exon7 (with a C insertion before 49T)-Intron7-Exon8-Luciferase was inserted to BamHI and NotI site of pCAG-IRESblast expression vector (Chen et al., Establishment and Maintenance of Genomic Methylation Patterns in Mouse Embryonic Stem Cells by Dnmt3a and Dnmt3b. Mol Cell Biol. 2003 August; 23(16):5594-605).
Human SMN2 exon1-exon6 cDNA were amplified by PCR (Forward primer: […]; reverse primer: […]), and Exon6-Intron6 (Forward primer: […]; reverse primer: […]) were fused by overlap PCR to create Exon1-Intron6 fragment, and was inserted into pSMN2 splicing Luciferase reporter via BamHI and HindIII sites to create pSMN2 exon1-6 splicing reporter. SMN2 promoter 5.1 kb fragment was amplified from human genomic DNA by PCR (Forward primer: […]; reverse primer: […]), and inserted between MluI site and BamHI site (Blunted using DNA blunting kit, Takara, Cat #6025) of pSMN2 exon1-6 splicing reporter to replace chicken β-actin promoter and the human cytomegalovirus immediate early enhancer, to finalize the pSMN2-Full-reporter.
SMN2 Full Reporter Stable Clone in NSC34 Cells:
pSMN2-Full reporter was stably transfected into NSC34 cells using Lipofectamine 2000, which were subsequently selected in blasticidin-containing medium for two weeks. Blasticidin-resistant colonies were screened by Luciferase signal and response to SAHA as well as by RT-PCR for alternative splicing of Exon7.
NSC34 SMN2 Full reporter stable line was cultured in DMEM (Invitrogen, Cat:11965)+10% FBS+7 μg/ml Blasticidin. Cells in culture media without Blasticidin were seeded into a 384-well plate at a density of 6000 cells/well and treated with compounds for 24 hours. Luciferase signal was assessed by BrightGlo assay. Eequal volume of BrightGlo reagent (Promega, Cat #E2620) was added to the cells and incubated for 10 minutes at room temperature. Luminescent signal was read in either BioTek or Envision plate reader.
Reporter gene assay conditions: compound concentration range 3 nM-10 uM.

[2] = test system: SMN protein; assay: cellular SMN ELISA (SMN protein elevation) in myoblast cell line from SMNdelta7 mouse model; format: cell-based; details: Biological Example 1, SMN ELISA, SMNdelta7 mouse myoblasts, 24 hours compound treatment; for EC50: read-out: SMN Activity (EC50)
In short: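 SMNdelta7 mouse myoblasts were treated with compounds for 24 h (20 nM–10 uM or 100 pM–10 uM), lysed in modified RIPA buffer, and SMN quantified by sandwich ELISA with HRP/TMB read at 450 nm. Values are fold activation over DMSO control and EC50.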

SMILES | EC50 [1] [nM] | SMN Activity (fold activation over DMSO control) [2] [fold] | EC50 [2] [nM]
CN(c1ccc(-c2cc3[nH]c(=O)oc3cc2O)nn1)C1CC(C)(C)NC(C)(C)C1 [Example 33-1, 6-hydroxy-5-(6-(methyl(2,2,6,6-tetramethylpiperidin-4-yl)amino)pyridazin-3-yl)benzo[d]oxazol-2(3H)-one] | 3000 | – | –
CN(c1ccc(-c2cc3cnc(C4CC4)cc3cc2O)nn1)C1CC(C)(C)NC(C)(C)C1 [Example 36-3, 3-cyclopropyl-7-(6-(methyl(2,2,6,6-tetramethyl-piperidin-4-yl)amino)pyridazin-3-yl)isoquinolin-6-ol] | 30 | – | –
CN(c1ccc(-c2cc3cnn(C)c3cc2O)nn1)C1CC(C)(C)NC(C)(C)C1 [Example 34-2, 1-methyl-5-(6-(methyl(2,2,6,6-tetramethylpiperidin-4-yl)amino)pyridazin-3-yl)-1H-indazol-6-ol] | 220 | – | –
Cc1cc2cc(O)c(-c3ccc(N(C)C4CC(C)(C)NC(C)(C)C4)nn3)cc2c(C)n1 [Example 29-3, 1,3-dimethyl-7-(6-(methyl(2,2,6,6-tetramethylpiperidin-4-yl)amino)pyridazin-3-yl)isoquinolin-6-ol] | 40 | – | –
CC(C)c1cc2cc(O)c(-c3ccc(N(C)C4CC(C)(C)NC(C)(C)C4)nn3)cc2cn1 [Example 36-4, 3-isopropyl-7-(6-(methyl(2,2,6,6-tetramethyl-piperidin-4-yl)amino)pyridazin-3-yl)isoquinolin-6-ol] | 190 | – | –
Cc1cc2cc(-c3ccc(N(C)C4CC(C)(C)NC(C)(C)C4)nn3)c(O)cc2c(C#N)n1 [Example 30-1, 7-hydroxy-3-methyl-6-(6-(methyl(2,2,6,6-tetramethylpiperidin-4-yl)amino)pyridazin-3-yl)isoquinoline-1-carbonitrile] | 30 | – | –
CN(c1ccc(-c2cc3cn(C)nc3cc2O)nn1)C1CC(C)(C)NC(C)(C)C1 [Example 34-1, 2-methyl-5-(6-(methyl(2,2,6,6-tetramethylpiperidin-4-yl)amino)pyridazin-3-yl)-2H-indazol-6-ol] | 150 | – | –
CC(C)c1cc2cc(O)c(-c3ccc(OC4CC(C)(C)NC(C)(C)C4)nn3)cc2cn1 [Example 36-6, 3-isopropyl-7-(6-((2,2,6,6-tetramethylpiperidin-4-yl)oxy)-pyridazin-3-yl)isoquinolin-6-ol] | 640 | – | –
CN(c1ccc(-c2cc3c(N)nccc3cc2O)nn1)C1CC(C)(C)NC(C)(C)C1 [Example 31-1, 1-amino-7-(6-(methyl(2,2,6,6-tetramethylpiperidin-4-yl)amino)pyridazin-3-yl)isoquinolin-6-ol] | 25 | – | –
CCn1ccc2cc(O)c(-c3ccc(OC4CC(C)(C)NC(C)(C)C4)nn3)cc2c1=O [Example 35-2, 2-ethyl-6-hydroxy-7-(6-((2,2,6,6-tetramethylpiperidin-4-yl)oxy)pyridazin-3-yl)isoquinolin-1(2H)-one] | 363 | – | –
CN(c1ccc(-c2cc3c(=O)n(C)c(=O)n(C)c3cc2O)nn1)C1CC(C)(C)NC(C)(C)C1 [Example 32-1, 7-hydroxy-1,3-dimethyl-6-(6-(methyl(2,2,6,6-tetramethylpiperidin-4-yl)amino)pyridazin-3-yl)quinazoline-2,4(1H,3H)-dione] | 133 | – | –
CCCc1cc2cc(O)c(-c3ccc(OC4CC(C)(C)NC(C)(C)C4)nn3)cc2cn1 [Example 36-5, 3-propyl-7-(6-((2,2,6,6-tetramethylpiperidin-4-yl)oxy)-pyridazin-3-yl)isoquinolin-6-ol] | 580 | – | –
CN(c1ccc(-c2cc3cc(-c4cn(C)cn4)cnc3cc2O)nn1)C1CC(C)(C)NC(C)(C)C1 [Example 7-4, 6-(6-(methyl(2,2,6,6-tetramethylpiperidin-4-yl)amino)pyridazin-3-yl)-3-(1-methyl-1H-imidazol-4-yl)quinolin-7-ol] | – | 2.2 | 200
CN(c1ccc(-c2cc3cc(O)cnc3cc2O)nn1)C1CC(C)(C)NC(C)(C)C1 [Example 7-6, 6-(6-(methyl(2,2,6,6-tetramethylpiperidin-4-yl)amino)pyridazin-3-yl)quinoline-3,7-diol] | – | 2.9 | 300
CN(c1ccc(-c2cc3cc(-n4ccnc4)cnc3cc2O)nn1)C1CC(C)(C)NC(C)(C)C1 [Example 7-5, 3-(1H-imidazol-1-yl)-6-(6-(methyl(2,2,6,6-tetramethylpiperidin-4-yl)amino)pyridazin-3-yl)quinolin-7-ol] | – | 2.5 | 50
Cc1cc(-c2cnn(C)c2)c2cc(-c3ccc(N(C)C4CC(C)(C)NC(C)(C)C4)nn3)c(O)cc2n1 [Example 11-1, 2-methyl-6-(6-(methyl(2,2,6,6-tetramethylpiperidin-4-yl)amino)pyridazin-3-yl)-4-(1-methyl-1H-pyrazol-4-yl)quinolin-7-ol] | – | 2.6 | 60
